{"source": "patent US9212184B2", "about": "“6-thio-substituted imidazo[1,2-a]pyrazines as Mps-1 inhibitors” (BAYER INTELLECTUAL PROPERTY GMBH, priority 2010, dated 2015)"}
{"target": "human kinase Mps-1 (Homo sapiens (Human), UniProt P33981)", "sequence (P33981 whole entry)": "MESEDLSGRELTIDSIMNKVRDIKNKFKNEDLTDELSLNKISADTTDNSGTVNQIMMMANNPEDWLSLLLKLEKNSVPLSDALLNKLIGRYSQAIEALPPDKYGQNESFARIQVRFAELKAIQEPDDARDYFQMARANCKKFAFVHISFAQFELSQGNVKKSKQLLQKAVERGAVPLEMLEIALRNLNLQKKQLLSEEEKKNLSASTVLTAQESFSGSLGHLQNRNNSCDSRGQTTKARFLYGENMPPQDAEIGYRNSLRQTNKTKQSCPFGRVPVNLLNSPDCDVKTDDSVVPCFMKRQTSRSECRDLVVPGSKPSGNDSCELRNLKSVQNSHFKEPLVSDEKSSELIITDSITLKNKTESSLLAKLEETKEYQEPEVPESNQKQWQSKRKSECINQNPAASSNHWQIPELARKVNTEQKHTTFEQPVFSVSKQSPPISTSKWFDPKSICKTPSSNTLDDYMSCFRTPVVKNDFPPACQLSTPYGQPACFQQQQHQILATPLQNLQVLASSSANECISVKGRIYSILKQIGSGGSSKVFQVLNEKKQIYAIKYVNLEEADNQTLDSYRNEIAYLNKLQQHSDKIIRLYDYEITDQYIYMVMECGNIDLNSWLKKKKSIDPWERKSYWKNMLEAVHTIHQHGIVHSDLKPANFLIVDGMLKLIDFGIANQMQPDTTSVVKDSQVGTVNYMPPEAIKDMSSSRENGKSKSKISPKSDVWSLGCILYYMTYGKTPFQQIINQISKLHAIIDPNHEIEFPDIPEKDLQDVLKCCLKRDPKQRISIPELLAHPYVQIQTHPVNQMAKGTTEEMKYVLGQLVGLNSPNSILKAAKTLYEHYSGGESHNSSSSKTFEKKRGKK", "test": "Mps-1 kinase assay (TR-FRET)", "type": "biochemical", "settings": "N-terminally GST-tagged human full length recombinant Mps-1; 10 μM ATP; 1 μM peptide substrate; 60 min at 22° C.; read-out: Mps1 IC50", "description": "The human kinase Mps-1 phosphorylates a biotinylated substrate peptide. Detection of the phosphorylated product is achieved by time-resolved fluorescence resonance energy transfer (TR-FRET) from Europium-labelled anti-phospho-Serine/Threonine antibody as donor to streptavidin labelled with cross-linked allophycocyanin (SA-XLent) as acceptor. Compounds are tested for their inhibition of the kinase activity.\nN-terminally GST-tagged human full length recombinant Mps-1 kinase (purchased from Invitrogen, Karslruhe, Germany, cat. no PV4071) was used. As substrate for the kinase reaction a biotinylated peptide of the amino-acid sequence PWDPDDADITEILG (C-terminus in amide form, purchased from Biosynthan GmbH, Berlin) was used.\nFor the assay 50 nL of a 100-fold concentrated solution of the test compound in DMSO was pipetted into a black low volume 384 well microtiter plate (Greiner Bio-One, Frickenhausen, Germany), 2 μl of a solution of Mps-1 in assay buffer [0.1 mM sodium-ortho-vanadate, 10 mM MgCl2, 2 mM DTT, 25 mM Hepes pH 7.7, 0.05% BSA, 0.001% Pluronic F-127] were added and the mixture was incubated for 15 min at 22° C. to allow pre-binding of the test compounds to Mps-1 before the start of the kinase reaction. […]\nThe resulting mixture was incubated 1 h at 22° C. to allow the binding of the phosphorylated peptide to the anti-phospho(Ser/Thr)-Europium-antibody. Subsequently the amount of phosphorylated substrate was evaluated by measurement of the resonance energy transfer from the Europium-labelled anti-phospho(Ser/Thr) antibody to the Streptavidin-XLent. Therefore, the fluorescence emissions at 620 nm and 665 nm after excitation at 350 nm was measured in a Viewlux TR-FRET reader (PerkinElmer LAS, Rodgau-Jügesheim, Germany). The “blank-corrected normalized ratio” (a Viewlux specific readout, similar to the traditional ratio of the emissions at 665 nm and at 622 nm, in which blank and Eu-donor crosstalk are subtracted from the 665 nm signal before the ratio is calculated) was taken as the measure for the amount of phosphorylated substrate. […]", "units": {"IC50": "nM"}}
{"smiles": "CSc1cn2c(-c3ccc(C(=O)NC4CC4)c(C)c3)cnc2c(NCC(C)(C)O)n1", "note": "[Example 1-4, N-cyclopropyl-4-{8-[(2-hydroxy-2-methylpropyl)amino]-6-(methylsulfanyl)imidazo [1,2-a]pyrazin-3-yl}-2-methylbenzamide]", "IC50": 64.8}
{"smiles": "CSc1cn2c(-c3ccc(C(=O)NC4CC4)c(C)c3)cnc2c(NCCC(F)(F)F)n1", "note": "[Example 1-3, N-cyclopropyl-2-methyl-4-{6-(methylsulfanyl)-8-[(3,3,3-trifluoropropyl)amino]imidazo[1,2-a]pyrazin-3-yl} benzamide]", "IC50": 8.6}
{"smiles": "CSc1cn2c(-c3ccc(C(=O)NC4CC4)cc3)cnc2c(NCC(C)C)n1", "note": "[Example 1-2, N-cyclopropyl-4-{8-[(2-methylpropyl)amino]-6-(methylsulfanyl)imidazo[1,2-a]pyrazin-3-yl}benzamide]", "IC50": 5}
